Assay results published in patent US20080300253A1, “TREATMENT OF INFLAMMATORY DISORDERS WITH PRAZIQUANTEL” (Gencross, Inc., priority 2005, published 2008).
Where two headings read alike, the source gives them in different places.

Assays:
p38 [1] = experiment: Mouse collagen-induced arthritis model: serum p38; assay type: in vivo, DBA/1 mice; conditions: 50 mg/kg oral suspension in saline, once or twice a day for three weeks; vs vehicle
Procedure: (§1) Male DBA/1 mice, obtained from the Jackson Laboratory, are maintained in groups of three to five in polycarbonate cages and fed standard mouse chow and water ad libitum. The environment is made specifically pathogen-free. Mice are immunized with bovine type II collagen (CII), at 8 to 12 weeks of age, as described previously (Arthritis Rheum. 2002, 46:1109, 2002; J. Immunol., 5846, 2005). Briefly, CII is dissolved in 0.05N acetic acid at 2 mg/ml, and emulsified (1:1 ratio) with complete Freund's adjuvant (CFA) at 4° C. The mice receive 0.1 ml of the emulsion, containing 100 μg of CII, in the base of the tail as a primary immunization. Booster injections are given into the footpad with 50 μg of CII, similarly dissolved and emulsified with CFA (1:1), 14 days after the primary immunization. CIA develops as early as 3 wk, peaks at 5-7 wk, and thereafter spontaneously resolves at 10 wk. Mice are divided into two groups. One group is administered vehicle (saline), and the other group is administered an oral suspension of 50 mg/kg praziquantel in saline starting 2 weeks after the CII booster injection. Praziquantel administration is continued once or twice a day for three weeks after the initial administration.
(§2) TNF-α and p38 levels in blood are then assayed as described above, and the incidence and severity of arthritis in the two groups of mice are determined by visual inspection.

p38 kinase = p38 kinase amount and phosphorylation in blood mononuclear cells of LPS/D-galactosamine-treated mice (western blotting); assay type: in vivo; conditions: 50 mg/kg oral 30 minutes prior to LPS/D-galactosamine; blood 3 hours later
Procedure: (§3) Mice were orally administered 50 mg/kg praziquantel 30 minutes prior to ip injection of 8 ng LPS and 8 mg D-galactosamine. Blood samples were taken 3 hours later, and mononuclear cells were isolated using Histopaque (Sigma Aldrich, cat #1080). Protein levels and their phosphorylation states were then determined by western blotting.

p38 [2] = experiment: Phosphorylated p38 in LPS-treated differentiated THP-1 cells (Western blotting); assay type: cell-based, human; conditions: 2 μg/ml LPS + 100 nM praziquantel vs LPS alone
Procedure: (§4) The THP-1 human monocytic cell line was treated with 200 nM phorbol myristate acetate (PMA) for 24 hours, resulting in differentiation into functional macrophages. Differentiated THP-1 cells were treated with 2 μg/ml lipopolysaccharide (LPS), and total proteins or nuclear proteins were isolated 0.5, 1, 2, and 3 hours later. In some differentiated THP-1 cell cultures, a combination of LPS and 100 nM praziquantel was added prior to isolation of total and nuclear proteins at the same time points. Both total protein and nuclear protein were quantitated by Western blotting. […] Thus, praziquantel inhibits LPS-induced NF-κB activity by preventing its translocation to the nucleus where it exerts its transcriptional activation effects. Neither α-tubulin nor lamin B protein was affected by either LPS or praziquantel treatment (FIG. 1).

[3] = tested on: LPS/D-galactosamine-induced acute sepsis; experiment: Survival of LPS/D-galactosamine-treated mice (acute sepsis); assay type: in vivo, C57BL6 mice
Procedure: An acute mouse in vivo sepsis model was used to determine the ability of praziquantel to reduce TNF-α levels. C57BL/6 mice were used which were 7 to 8 weeks old and weighed 25 to 30 g. Fodder (Daehan Biolink) and water were administered ad libitum, and the temperature and relative humidity of the nursery cage were maintained at 21-24° C. and 40-80%, respectively. In addition, the nursery cage light was controlled to switch between day and night every 12 hours. Eight to ten mice were assigned to each experimental group. Each mouse was intraperitoneally (ip) administered 8 ng LPS (Sigma Aldrich) and 8 mg D-galactosamine (SIGMA), each dissolved in 100 μl distilled water, to induce acute sepsis. In order to investigate the effect of praziquantel on TNF-α levels in blood, praziquantel was orally administered to each experimental group at dosages of 12.5 mg/kg, 25 mg/kg or 50 mg/kg, 30 minutes prior to treatment with LPS/D-galactosamine. The blood was sampled 1, 3 and 5 hours after treatment with praziquantel. Serum was isolated from the sampled blood, and the amount of TNF-α was measured by ELISA (R&D Systems, Minneapolis, Minn.).
Female C57BL6 mice (8-10 per experimental group) were treated as described above to induce acute sepsis, and the same doses of praziquantel were administered 30 minutes prior to treatment with LPS/D-galactosamine.

TNF-α [4] = experiment: Serum TNF-α (ELISA) in acute mouse sepsis model (LPS/D-galactosamine); assay type: in vivo, C57BL/6 mice; conditions: 12.5, 25 or 50 mg/kg oral, 30 minutes prior to LPS/D-galactosamine
IKK-α = IKK-α phosphorylation in blood mononuclear cells of LPS/D-galactosamine-treated mice (western blotting); assay type: in vivo; conditions: 50 mg/kg oral 30 minutes prior to LPS/D-galactosamine; blood 3 hours later
Procedure: (§5) Mice were orally administered 50 mg/kg praziquantel 30 minutes prior to ip injection of 8 ng LPS and 8 mg D-galactosamine. Blood samples were taken 3 hours later, and mononuclear cells were isolated using Histopaque (Sigma Aldrich, cat #1080). Protein levels and their phosphorylation states were then determined by western blotting. […] The amount of IKK-α and IKK-β proteins and their phosphorylation states were also examined. […] IKK-α and IKK-β are known to phosphorylate IκB, and phosphorylated IκB is degraded by a protease.

ATF-2 [5] = experiment: Phosphorylated ATF-2 in LPS-treated differentiated THP-1 cells (Western blotting); assay type: cell-based, human; conditions: 2 μg/ml LPS + 100 nM praziquantel vs LPS alone
Procedure: as §4

IKK-β = IKK-β phosphorylation in blood mononuclear cells of LPS/D-galactosamine-treated mice (western blotting); assay type: in vivo; conditions: 50 mg/kg oral 30 minutes prior to LPS/D-galactosamine; blood 3 hours later
Procedure: as §5

IKK α/β = experiment: Phosphorylated IKK α/β in LPS-treated differentiated THP-1 cells (Western blotting); assay type: cell-based, human; conditions: 2 μg/ml LPS + 100 nM praziquantel vs LPS alone
Procedure: as §4

[6] = cats dosed with 100 mg/kg; cited from earlier work
[7] = dogs dosed with 100 mg/kg; cited from earlier work
ATF-2 [8] = experiment: ATF-2 phosphorylation in blood mononuclear cells of LPS/D-galactosamine-treated mice (western blotting); assay type: in vivo; conditions: 50 mg/kg oral 30 minutes prior to LPS/D-galactosamine; blood 3 hours later
Procedure: as §3

TNF-α [9] = experiment: Mouse collagen-induced arthritis model: serum TNF-α; assay type: in vivo, DBA/1 mice; conditions: 50 mg/kg oral suspension in saline, once or twice a day for three weeks; vs vehicle
Procedure: as §1, §2

[10] = tested on: collagen-induced arthritis; experiment: Mouse collagen-induced arthritis model: severity of arthritis by visual inspection; assay type: in vivo, DBA/1 mice; conditions: 50 mg/kg oral suspension in saline, once or twice a day for three weeks; vs vehicle
Procedure: as §1, §2

[11] = rats; cited from earlier work
TNF-α [12] = experiment: TNF-α amount in LPS-treated differentiated THP-1 cells (Western blotting); assay type: cell-based, human
Procedure: as §4

NF-κB = NF-κB total level and nuclear translocation in LPS-treated differentiated THP-1 cells (Western blotting); assay type: cell-based, human; conditions: 2 μg/ml LPS + 100 nM praziquantel
Procedure: as §4

IκB = IκB amount and phosphorylation in blood mononuclear cells of LPS/D-galactosamine-treated mice (western blotting); assay type: in vivo; conditions: 50 mg/kg oral 30 minutes prior to LPS/D-galactosamine; blood 3 hours later
Procedure: as §5

O=C(C1CCCCC1)N1CC(=O)N2CCc3ccccc3C2C1 (stereo not drawn) [Praziquantel, 2-(cyclohexylcarbonyl)-1,2,3,6,7,11β-hexahydro-4H-pyrazino[2,1-α]isoquinoline-4-one]
serum levels of p38 (p38 [1]): significantly reduced
amount of p38 protein (p38 kinase): did not change
phosphorylation of p38 kinase (p38 kinase): inhibited
active (phosphorylated) form of p38 (p38 [2]): Significant reductions
Survival (# of mice) ([3]; 12.5 mg/kg oral, 0 h): (30/30)
Survival rate ([3]; 12.5 mg/kg oral, 0 h): 100%
Survival (# of mice) ([3]; 12.5 mg/kg oral, 5 h): (30/30)
Survival rate ([3]; 12.5 mg/kg oral, 5 h): 100%
Survival (# of mice) ([3]; 12.5 mg/kg oral, 6 h): (26/30)
Survival rate ([3]; 12.5 mg/kg oral, 6 h): 86%
Survival (# of mice) ([3]; 12.5 mg/kg oral, 7 h): (17/30)
Survival rate ([3]; 12.5 mg/kg oral, 7 h): 57%
Survival (# of mice) ([3]; 12.5 mg/kg oral, 8 h): (15/30)
Survival rate ([3]; 12.5 mg/kg oral, 8 h): 50%
Survival (# of mice) ([3]; 12.5 mg/kg oral, 9 h): (13/30)
Survival rate ([3]; 12.5 mg/kg oral, 9 h): 43%
Survival (# of mice) ([3]; 12.5 mg/kg oral, 10 h): (4/30)
Survival rate ([3]; 12.5 mg/kg oral, 10 h): 14%
Survival (# of mice) ([3]; 12.5 mg/kg oral, 11 h): (4/30)
Survival rate ([3]; 12.5 mg/kg oral, 11 h): 14%
Survival (# of mice) ([3]; 12.5 mg/kg oral, 12 h): (4/30)
Survival rate ([3]; 12.5 mg/kg oral, 12 h): 14%
Survival (# of mice) ([3]; 12.5 mg/kg oral, >24 h): (4/30)
Survival rate ([3]; 12.5 mg/kg oral, >24 h): 14%
Survival (# of mice) ([3]; 25 mg/kg oral, 0 h): (30/30)
Survival rate ([3]; 25 mg/kg oral, 0 h): 100%
Survival (# of mice) ([3]; 25 mg/kg oral, 5 h): (30/30)
Survival rate ([3]; 25 mg/kg oral, 5 h): 100%
Survival (# of mice) ([3]; 25 mg/kg oral, 6 h): (28/30)
Survival rate ([3]; 25 mg/kg oral, 6 h): 93%
Survival (# of mice) ([3]; 25 mg/kg oral, 7 h): (21/30)
Survival rate ([3]; 25 mg/kg oral, 7 h): 71%
Survival (# of mice) ([3]; 25 mg/kg oral, 8 h): (21/30)
Survival rate ([3]; 25 mg/kg oral, 8 h): 71%
Survival (# of mice) ([3]; 25 mg/kg oral, 9 h): (21/30)
Survival rate ([3]; 25 mg/kg oral, 9 h): 71%
Survival (# of mice) ([3]; 25 mg/kg oral, 10 h): (21/30)
Survival rate ([3]; 25 mg/kg oral, 10 h): 71%
Survival (# of mice) ([3]; 25 mg/kg oral, 11 h): (21/30)
Survival rate ([3]; 25 mg/kg oral, 11 h): 71%
Survival (# of mice) ([3]; 25 mg/kg oral, 12 h): (19/30)
Survival rate ([3]; 25 mg/kg oral, 12 h): 64%
Survival (# of mice) ([3]; 25 mg/kg oral, >24 h): (19/30)
Survival rate ([3]; 25 mg/kg oral, >24 h): 64%
Survival (# of mice) ([3]; 50 mg/kg oral, 0 h): (30/30)
Survival rate ([3]; 50 mg/kg oral, 0 h): 100%
Survival (# of mice) ([3]; 50 mg/kg oral, 5 h): (30/30)
Survival rate ([3]; 50 mg/kg oral, 5 h): 100%
Survival (# of mice) ([3]; 50 mg/kg oral, 6 h): (28/30)
Survival rate ([3]; 50 mg/kg oral, 6 h): 93%
Survival (# of mice) ([3]; 50 mg/kg oral, 7 h): (28/30)
Survival rate ([3]; 50 mg/kg oral, 7 h): 93%
Survival (# of mice) ([3]; 50 mg/kg oral, 8 h): (28/30)
Survival rate ([3]; 50 mg/kg oral, 8 h): 93%
Survival (# of mice) ([3]; 50 mg/kg oral, 9 h): (28/30)
Survival rate ([3]; 50 mg/kg oral, 9 h): 93%
Survival (# of mice) ([3]; 50 mg/kg oral, 10 h): (28/30)
Survival rate ([3]; 50 mg/kg oral, 10 h): 93%
Survival (# of mice) ([3]; 50 mg/kg oral, 11 h): (28/30)
Survival rate ([3]; 50 mg/kg oral, 11 h): 93%
Survival (# of mice) ([3]; 50 mg/kg oral, 12 h): (28/30)
Survival rate ([3]; 50 mg/kg oral, 12 h): 93%
Survival (# of mice) ([3]; 50 mg/kg oral, >24 h): (28/30)
Survival rate ([3]; 50 mg/kg oral, >24 h): 93%
amount of TNF-α in blood serum (TNF-α [4]): dose-dependent decrease
phosphorylation of IKK-α (IKK-α): inhibited
active (phosphorylated) form of ATF-2 (ATF-2 [5]): Significant reductions
phosphorylation of IKK-β (IKK-β): inhibited
active (phosphorylated) form of IKK α/β (IKK α/β): Significant reductions
adverse effects [6]: No adverse effects
adverse effects [7]: No adverse effects
phosphorylation of ATF-2 (ATF-2 [8]): inhibited
serum levels of TNF-α (TNF-α [9]): significantly reduced
severity of arthritis [10]: greatly reduced
LD50 [11]: 2,000-3,000 mg/kg
amount of TNF-α (TNF-α [12]; 2 μg/ml LPS + 100 nM praziquantel vs LPS alone, one, two and three hours): much less TNF-α
amount of TNF-α (TNF-α [12]; 2 μg/ml LPS + 100 nM praziquantel, two and three hour time points): barely detectable
total NF-κB levels (NF-κB): not affected
translocation of NF-κB to the nucleus (NF-κB; nuclear fraction): did not occur
amount of IκB protein (IκB): did not decrease
phosphorylation of IκB (IκB): inhibited
